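Briefly, cells in 96-well plates were exposed to five compound concentrations for 48 h, and endpoints were estimated by linear interpolation. GI50: concentration for 50% inhibition of growth. Definition used: TGI = concentration required for complete inhibition of growth.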 Where a SMILES comes first, the peptide text is derived from it. [ ]: non-standard residue; d: D form. The star is where a group is joined. NMeF = CN[CH](Cc1ccccc1)C(=O)O; NMeV = CN[CH](C(=O)O)C(C)C; Boc = CC(C)(C)OC(=O)*; OBn = c1ccc(CO*)cc1
Legend:
Test in all cases: inhibition of tumour cell growth, NCI panel, 48 h
[1] = test system: M14 melanoma
[2] = test system: TK-10 renal
[3] = test system: LOX IMVI melanoma
[4] = test system: HL-60(TB) leukemia
[5] = test system: UACC-62 melanoma
[6] = test system: HCT-116 colon
[7] = test system: T-47D breast
[8] = test system: HCT-15 colon
[9] = test system: UO-31 renal
[10] = test system: A498 renal

SMILES	TGI [1]	TGI [2]	TGI [3]	TGI [4]	TGI [5]	TGI [6]	GI50 [1]	GI50 [7]	TGI [7]	GI50 [8]	TGI [8]	GI50 [2]	GI50 [3]	GI50 [9]	TGI [9]	GI50 [4]	GI50 [5]	GI50 [6]	TGI [10]	GI50 [10]
OCCc1cnco1	> 100 µM	> 100 µM	> 100 µM	> 100 µM	> 100 µM	> 100 µM														
Cc1cc(C)cc(Nc2nccc(-c3c(-c4ccc(F)cc4)ncn3C3CCNCC3)n2)c1	3.18 µM	2.95 µM	2.88 µM	3.68 µM	2.95 µM	2.36 µM	1590 nM	1420 nM	3.79 µM	1150 nM	2.85 µM	717 nM	1.54 µM	692 nM	2.15 µM	1600 nM	1550 nM	1130 nM		
CCC[CH2][Sn]1([CH2]CCC)[O]C(=O)C[S]1	4.43 µM	2.92 µM	3.09 µM	4.66 µM	2.89 µM	4.49 µM	2050 nM			1460 nM	3.18 µM	1550 nM	1.46 µM	2480 nM	7.29 µM	1020 nM	1350 nM	1910 nM		
COc1ccc(CNc2nc3ccccc3nc2-c2cccs2)cc1OC		> 100 µM		> 100 µM		> 100 µM					> 100 µM				> 100 µM					
CC(C)C(NC(=O)OC(C)(C)C)C(=O)N(C)C(Cc1ccccc1)C(=O)N(C)C(C(=O)N(C)C(C(=O)OCc1ccccc1)C(C)C)C(C)C (stereo not drawn) (Boc-V[NMeF][NMeV][NMeV]-OBn; configuration not given here)	> 100 µM	> 100 µM	> 100 µM	> 100 µM	> 100 µM	> 100 µM					> 100 µM				> 100 µM					
O=S(=O)(NC(=S)Nc1ccccc1)c1ccc(N2N=C3c4ccccc4CC3C2c2ccc(Cl)cc2)cc1 (stereo not drawn)	> 100 µM	99.4 µM	39 µM	46.2 µM	38.8 µM	55.2 µM	36400 nM	36300 nM	> 100 µM	22400 nM	54.8 µM	30200 nM	19.5 µM	19000 nM	38.1 µM	21000 nM	18300 nM	21600 nM		
CCOC(=O)CNC(SC)=C(C#N)C#N	> 100 µM	> 100 µM	> 100 µM	> 100 µM	> 100 µM	> 100 µM					> 100 µM				> 100 µM				> 100 µM	
COc1ccc(N2CCN(CC(=O)N3CCN(c4nnc(-c5ccccc5)c(-c5ccccc5)n4)CC3)CC2)cc1	> 100 µM	> 100 µM	> 100 µM	> 43.2 µM		38.6 µM	17000 nM	2560 nM	18.5 µM	6070 nM	> 100 µM	9390 nM	11.6 µM	3940 nM	> 90.6 µM	6030 nM		3960 nM	85.6 µM	3.35 µM
N/C(=N\OC(=O)NC(Cl)=C(Cl)Cl)c1cc(C(F)(F)F)cc(C(F)(F)F)c1	70.4 µM	30.4 µM	31.8 µM	30 µM		35.5 µM			25.7 µM		48.4 µM				33.9 µM				32.3 µM	
O=C1c2c(c3c4ccccc4n4c3c3c2c2ccccc2n3C/C=C\C4)C(=O)N1Cc1ccccc1	> 100 µM	> 100 µM	> 100 µM	> 100 µM	> 100 µM	> 100 µM					> 100 µM				> 100 µM				> 100 µM	
Cn1c(=O)c(C(c2ccccc2)c2c(O)c3ccccc3n(C)c2=O)c(O)c2ccccc21	> 100 µM	> 100 µM	> 100 µM	> 100 µM	> 100 µM	> 100 µM									> 100 µM					
CC(=O)OCCC/C(=C\c1ccc2ccccc2c1)[N+](=O)[O-]	3.21 µM	3.4 µM		> 100 µM	2.98 µM	3.3 µM	1580 nM			1610 nM	3.42 µM	1580 nM		1160 nM	2.6 µM	> 100000 nM	1470 nM	1610 nM	2.39 µM	1.04 µM
CSc1nc2c(nc(N)n2C2OCC(O)C(O)C2O)c(=O)[nH]1 (stereo not drawn)	> 100 µM	> 100 µM	> 100 µM	> 100 µM	> 100 µM	> 100 µM									> 100 µM				> 100 µM	
C#CCOCn1cnc2ncnc(Cl)c21	> 100 µM	> 100 µM	> 100 µM		> 100 µM	> 100 µM									> 100 µM				> 100 µM	
O=C(N/C(=C\c1ccc([N+](=O)[O-])cc1)c1nc2[nH]c(=S)[nH]c(=O)c2[nH]1)c1ccccc1	> 100 µM	> 100 µM			> 100 µM						> 100 µM				> 100 µM					
O=C1Cc2ccccc2N1/N=C\c1ccc(O)cc1	> 100 µM	> 100 µM	> 100 µM		> 100 µM	> 100 µM					> 100 µM				> 100 µM				> 100 µM	
Cn1cc(-c2csc(-c3cn(CCN4CCOCC4)c4ccc(F)cc34)n2)c2cccnc21	4.89 µM	18.8 µM		6.87 µM	5.34 µM	10.2 µM	2090 nM	1520 nM	4.73 µM	2290 nM	8.09 µM	3280 nM		2200 nM	7.88 µM	2520 nM	2060 nM	3000 nM	48.5 µM	5.66 µM
C(=C1\CCC/C(=C/c2ccccc2)C1=NNc1ccccc1)/c1ccccc1	> 100 µM	> 100 µM	> 100 µM	> 100 µM	> 100 µM	> 100 µM					> 100 µM				> 100 µM				> 100 µM	
O=C(CCCn1ccnc1[N+](=O)[O-])NCCn1cnc([N+](=O)[O-])c1	> 100 µM	> 100 µM	> 100 µM	> 100 µM	> 100 µM	> 100 µM			> 100 µM		> 100 µM				> 100 µM					

Source: PubChem BioAssay (NCI)
